The text below walks through data of PubChem BioAssay AID179 (DTP/NCI, 2004).

The subject of the experiment is CEM cells HIV-1 protection, formazan growth assay. The experiment can be described thus: NCI AIDS Antiviral Assay. To be noted: for IC50: measured here: growth of uninfected CEM cells. The essentials: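 Category rules: moderately active means at least 50% protection on retest, and confirmed active means 100% protection reproducibly. The underlying data came from a formazan growth assay in HIV-1-infected CEM cells.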

Structures are written as SMILES. Where “and” joins values, the source holds several entries; their conditions need not be identical. Identical values can stand only once. Calls of active or inactive are those of the source.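 How the source made its calls: active means compounds giving half or more protection of infected cells from virus-caused growth loss, again on retest; inactive means the rest.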 *1 amine or outer side, *2 acyl side, *3 side chain or, on linkers, in order; H or OH if unused. Where a SMILES comes first, the peptide text is derived from it. CO = O=C([*:1])[*:2]

The term EC50 denotes the concentration needed to bring the measured effect to its halfway point. The term IC50 denotes the concentration needed to halve the response being measured. High values mean a need for much substance, low ones inhibition by little substance. Take `O=c1oc2ccccc2c(O)c1C(c1ccc(-c2ccccc2)cc1)c1c(O)c2ccccc2oc1=O`: the EC50 is above 200 µM and the IC50 amounted to 35.5 µM. As for `CCOC(=O)C1C(=O)CC(C)(O)C(C(=O)OCC)C1c1ccc(N(C)C)cc1` (configuration not stated), the EC50 was above 200 µM and the IC50 is above 200 µM. As for `COc1cc2c(cc1OC)C1Cc3cc(OC)c(OC)cc3N1CC2` (configuration not stated), the EC50 was above 29.5 µM and the concentration for half-maximal inhibition (IC50) amounted to 9.12 µM. With `O=C(/C=C\c1ccc(O)c(O)c1)OC1C(O)CC(OC(=O)/C=C/c2ccc(O)c(O)c2)(C(=O)O)CC1O` (configuration not stated), the EC50 was above 200 µM and the concentration for half-maximal inhibition (IC50) is 30.2 µM. Take `CC1(C#N)N(C(=O)c2ccccc2)c2ccccc2N1C(=O)c1ccccc1`: the result was inactive. For `O=C(NCc1ccc2ccc3cccnc3c2n1)c1ccc[n+](Cc2ccccc2)c1`, the EC50 is above 513 µM and the concentration for half-maximal inhibition (IC50) was 24.5 µM. The like results for `CC(C)(C)c1cc(/C=C\C(=O)c2ccc([N+](=O)[O-])cc2)cc(C(C)(C)C)c1O` were, in that order, above 10 µM and above 10 µM. `NC(=O)c1nc(C2OC(CO)C(O)C2O)cs1` (configuration not stated): the EC50 is above 200 µM and the IC50 is above 200 µM. For `CCC(C)c1c(NS(=O)(=O)c2ccc(C)cc2)o[nH]c1=O` (configuration not stated), the EC50 is above 200 µM and the IC50 is above 200 µM. For `CCOP(=O)(OCC)C(N)C(C)C` (configuration not stated), the EC50 was above 513 µM and the half-maximal inhibitory concentration (IC50) is above 513 µM.

Take `CCn1c(=N)sc2nc3ccccc3n2c1=O`: the EC50 was above 200 µM and the IC50 was determined as 58.9 µM. The like results for `COC(=O)c1ccccc1NC(=O)C(=O)CC(=O)c1ccccc1NC1=CC(=O)C(=O)c2ccccc21` were, in that order, above 27.5 µM and 4.68 µM.

Consider `Cc1nc2sccn2c1C(N)=O`, for which the EC50 is above 200 µM and the IC50 is above 200 µM. On to `O=c1[nH]c(=S)nc2nc3c4ccc[nH]c4c4ccccc4c3nc12`, for which the EC50 is above 200 µM and the half-maximal inhibitory concentration (IC50) came out at 58.9 µM.

Regarding `COc1ccc(OC)c2c3c([nH]c12)C(=O)Nc1nc(N)nc(N)c1C3`, the EC50 is above 20 µM and the IC50 is 1 µM. With `O=C(/C(=C/c1ccc(Br)cc1)c1ccccc1)c1ccccc1`, the EC50 is above 14.5 µM and the 50% inhibitory concentration (IC50) was above 14.5 µM. With `CC1=C(C#N)C(N)=C2C(C)=C(C#N)C(N)=C12`, the result was inactive.

With `O=c1[nH][nH]c(=O)c2nc3c(nc12)c1nc2c(=O)[nH][nH]c(=O)c2nc1c1nc2c(=O)[nH][nH]c(=O)c2nc31`, the result was inactive.

Turning to `O=C(CSc1nnc(-c2ccc(N=Cc3ccc(Cl)cc3)cc2)o1)Nc1cccc([N+](=O)[O-])c1`, the EC50 was above 5.5 µM and the IC50 stood at 2.24 µM. As to `COCCN(C(C)=O)C1CCC2(SCCS2)c2[nH]c3ccccc3c21` (configuration not stated), the EC50 is above 200 µM and the half-maximal inhibitory concentration (IC50) was above 200 µM. In the case of `CCOc1ccccc1NC(=O)C(=O)C(/C(=N/N)C(=O)OC)c1nc2ccc([N+](=O)[O-])cc2[nH]c1=O` (configuration not stated), the EC50 is above 263 µM and the IC50 is above 263 µM.

Take `COc1ccc2c(c1OC)OCC(CN(C)C)C2=O` (configuration not stated): the outcome was inactive. As to `C=C(C)C1CCC2(C)OC2C1` (configuration not stated), the EC50 was above 200 µM and the concentration for half-maximal inhibition (IC50) was above 200 µM.

Regarding `C=CN1C(=O)OC(c2ccccc2)C1c1ccccc1` (configuration not stated), the EC50 is above 93.3 µM; the concentration for half-maximal inhibition (IC50) was > 79.4 µM and 30.2 µM.

For the compound `CC(Cn1c2c(c3cc(O)ccc31)CCc1ccc(O)cc1-2)N(C)C` (configuration not stated), the EC50 is above 200 µM and the half-maximal inhibitory concentration (IC50) was 12 µM. With `O=C(O)CCC(NC(=O)c1ccc(Nc2nc3ccc(C(F)(F)F)cc3nc2C(=O)O)cc1)C(=O)O` (configuration not stated), the EC50 was above 200 µM and the IC50 was above 200 µM. Consider `COC(=O)[C@H](Cc1ccccc1)NC(=O)N[C@@H](C)C(=O)N[C@H](C(=O)N[C@H](C=O)Cc1ccccc1)C(C)C` ({OMe-Phe-CO}-Ala-Val-Phe-aldehyde), for which the EC50 was above 200 µM and the IC50 was 4.79 µM. For `Cc1ccc(NC(c2ccccc2)P(=O)(c2ccccc2)c2ccccc2)cc1` (configuration not stated) the same measures were above 200 µM and above 200 µM. As to `Nc1nn2cc3c(nc2c1N=Nc1ccccc1)-c1ccccc1CC3`, the EC50 is above 200 µM and the IC50 is above 200 µM. For the compound `COC(=O)N1CC[C@@H]2CCC=C(c3cccc4c3OCO4)[C@@H]21`, the result was inactive. On to `O=[N+]([O-])c1ccc(/C=C/c2c[n+]([O-])nc3ccccc23)cc1`, for which the EC50 is above 200 µM and the half-inhibitory concentration (IC50) is above 200 µM.

On to `CCOC(=O)C(OCC1CC=CCC1)Sc1ccccc1` (configuration not stated), for which the EC50 was above 23.4 µM and the IC50 is above 23.4 µM. In the case of `C/C=C/C(C1=C(O)c2ccccc2C(=O)C1=O)C1=C(O)c2ccccc2C(=O)C1=O`, the EC50 was above 200 µM and the IC50 was determined as 83.2 µM. `CC(=O)NC1(C)CCC(C(C)(C)NC(C)=O)CC1` (configuration not stated): the EC50 is above 200 µM and the IC50 is above 200 µM. Consider `N=C(N)SCc1ccc2nsnc2c1`, for which the EC50 is above 309 µM and the concentration for half-maximal inhibition (IC50) turned out to be 52.5 µM. On to `Cc1cccc(C2=NC(C)(C)C(C)(C)N=C2c2cccc(C)n2)n1`, for which the EC50 was above 81.3 µM and the IC50 was above 81.3 µM. Turning to `O=S1(=O)Cc2ccc3c4c2-c2c(ccc5ccc(c-4c25)CS(=O)(=O)C3)C1`, the EC50 is above 200 µM and the IC50 is 17 µM. As for `CCCCn1c(-c2ccccc2)cs/c1=N\NC(=O)Cn1c(C)nc2ccccc21`, the EC50 is above 85.1 µM and the IC50 turned out to be 34.7 µM.

For the compound `Cc1ccc(NC(Nc2ccc(C)cc2C)=C(/C=C(\Cl)[N+](=O)[O-])[N+](=O)[O-])c(C)c1`, the EC50 is above 200 µM and the IC50 amounted to 2.51 µM.

In the case of `COc1cc(Br)c2nsnc2c1`, the EC50 was above 29.5 µM and the half-inhibitory concentration (IC50) was above 29.5 µM. With `CC1(O)CC2C(CC1SC1CC3C(CC1(C)O)C3(C)C)C2(C)C` (configuration not stated), the EC50 is above 200 µM and the IC50 is above 200 µM. In the case of `CSCCOC(=O)c1cc(NC(=S)c2ccoc2C)ccc1Cl`, the concentration giving a half-maximal response (EC50) was 0.0182 µM and the half-inhibitory concentration (IC50) is 19.5 µM. Consider `CC1(C)OC(=O)C(C)(C)C(=O)O1`, for which the result was inactive.

`CC(C)(C)C(=O)N(C(=S)OCc1ccccn1)c1ccccc1`: the EC50 was above 200 µM and the IC50 is 40.7 µM. For `O=C1C2=C(SCCS2)C(=O)c2c(Sc3ccc(Cl)cc3)c(Sc3ccc(Cl)cc3)c(Sc3ccc(Cl)cc3)c(Sc3ccc(Cl)cc3)c21` the same measures were above 151 µM and above 151 µM. With `O=C(O)C1Cc2c([nH]c3ccccc23)C(C2CCNC2=S)N1` (configuration not stated), the outcome was inactive.

On to `CC(C)C(NCc1c(O)ccc2c(-c3ccccc3)cc(=O)oc12)C(=O)O` (configuration not stated), for which the EC50 was above 200 µM and the IC50 was above 200 µM. For `CCCCCCCCCCCCCCCCCCC(C(=O)O)C(=O)O`, the EC50 is above 708 µM and the concentration for half-maximal inhibition (IC50) stood at 347 µM.

Regarding `O=NC1(c2ccccc2)CCCCC1[N+](=O)[O-]` (configuration not stated), the EC50 was above 200 µM and the IC50 is above 200 µM. Consider `O=C(c1nc2cc([N+](=O)[O-])ccc2[nH]c1=O)C(O)c1ccco1` (configuration not stated), for which the EC50 was above 200 µM and the IC50 is 61.7 µM. As for `CCN(CC)/C(SCc1ccccc1)=C(\C(Cl)=C(Cl)Cl)[N+](=O)[O-]`, the EC50 is above 200 µM and the IC50 was 34.7 µM. For `OC1CN2CCS[C@H]2C(O)C1O` (some centres not stated) the same measures were above 200 µM and above 200 µM.
